The results in this text go back to PMC8296985, “A Covalent Calmodulin Inhibitor as a Tool to Study Cellular Mechanisms of K-Ras-Driven Stemness” (Frontiers in Cell and Developmental Biology, 2021).

Structures are written as SMILES. Several values for one entry are separate records, joined by “and”; a condition that tells them apart may be missing. Equal entries are not always repeated. Some results are limits rather than exact numbers.

Holding throughout (format): cell-based
The test system of one data set is HeLa cells. Put plainly: Centrosome number / multipolar phenotype in synchronized HeLa cells expressing mCherry-CaM. Particulars: 2 h; calmidazolium 20 μM, 1 50 μM, with MG132 10 μM. As for the experimental part:
To evaluate the effect of compounds on centrosome numbers during mitosis, HeLa cells were seeded in 6-well plates onto sterile coverslips and cotransfected with 0.5 μg of pmCherry-CaM and 1.5 μg pEGFP-Centrin1 plasmids using 4 μl of jetPRIME. Twenty-four hours after the transfection, cells were synchronized with 60 ng/ml of nocodazole for 16 h. After the removal of nocodazole, the cells were treated with the […] MG132 (10 μM) to block the cells in metaphase and either calmidazolium (20 μM), 1 (50 μM), or DMSO (0.5%) for 2 h. Cells were then fixed with 4% paraformaldehyde in PBS for 10 min at ambient temperature. After washing with PBS-Tween 0.05%, DNA was stained with a 1 μg/ml solution of DAPI diluted in PBS for 10 min. Coverslips were mounted on glass slides using Vectashield, and images were captured on a spinning disk confocal microscope. Images were analyzed with the ImageJ software, and the number of transfected mitotic cells with multipolar and normal bipolar phenotypes was counted (between 35 and 70 cells per test condition). The percentage multipolar vs. bipolar cells was computed to generate the plot using the Prism software.

Data set [1] concerns NCI-H358, MIA PaCa-2, MDA-MB-231 and A375 3D spheroids. Put plainly: 3D spheroid growth benchmarking, DSS3, alamarBlue. On the procedure: 3D spheroid formation assays were performed in 96-well low-attachment, suspension culture plates (cat. no. 655185, Cellstar, Greiner Bio-One) under serum-free condition. About 1,000 (MDA-MB-231, NCI-H358, and MIA PaCa-2) or 2,500 (Hs 578T) cells per well were seeded in 50 μl of either an RPMI medium (cat. no. 52400-025, Gibco, Thermo Fisher Scientific) (MDA-MB-231, A375, and NCI-H358) or DMEM (cat. no. 41965-039, Gibco, Thermo Fisher Scientific) (Hs 578T and MIA PaCa-2), containing 0.5% MethoCult (cat. no. SF H4636, Stemcell technologies), 1x B27 (cat. no. 17504044, Gibco, Thermo Fisher Scientific), 25 ng/ml EGF (cat. no. E9644, Sigma-Aldrich), and 25 ng/ml FGF (cat. no. RP-8628, Thermo Fisher Scientific). Cells were cultured for 3 days and then treated with compounds or vehicle control (DMSO 0.1% v/v in growth medium) for another 3 days. The cells were supplemented with a fresh growth medium on the third day together with the drug treatment. For knockdown experiments, cells were seeded in 12-well plates and treated with either 50 nM scrambled siRNA (cat. no. 1022076, QIAGEN) or indicated concentrations of siRNAs. Next day, cells were collected by trypsinization and re-plated into 96-well plates for 3D spheroid suspension culture.
Spheroid formation efficiency was analyzed by an alamarBlue assay reagent (cat. no. DAL1100, Thermo Fisher Scientific). A 10% final volume of the alamarBlue reagent was added to each well of the plate and incubated for 4 h at 37°C. Then the fluorescence intensity was measured using the FLUOstar OPTIMA plate reader (BMG Labtech, Germany) with an excitation wavelength of 560 ± 5 nm and an emission wavelength of 590 ± 5 nm.
(§1) To quantitatively profile the drug sensitivity with a more robust parameter than the IC50 or EC50 values, the drug sensitivity score (DSS) analysis was employed. DSS values are essentially normalized area under the curve (AUC) measures of dose-response inhibition data ([Yadav et al., 2014]). Drug response data files (in Excel) ready for online analysis were prepared according to the example file obtained from the DSS pipeline website, called Breeze^1 ([Potdar et al., 2020]). Either raw fluorescence intensity measurements or normalized % inhibition data (for BRET assay analysis) were uploaded.
DSS3 was employed to emphasize drugs that obtain their response area over a relatively wide dose window, as compared to drugs that show increased response only at the higher end of the concentration range. After logistic fitting of the dose-response inhibition data, the area under the curve (AUC) was determined as the exact solution. A 10% minimal activity threshold (t) was set. The maximum (Cmax) and minimum (Cmin) concentrations were used for screening of the inhibitors, with Cmax = x2 and x1 concentration with minimal activity t.

In data set [2] the test system is HRAS mutant cells (Hs 578T, T24). Put plainly: 2D viability assay (alamarBlue), DSS3. The following applies: relative to OphA; listed as Calmirasone1. On the procedure: as §1
DSS3 was employed to emphasize drugs that obtain their response area over a relatively wide dose window, as compared to drugs that show increased response only at the higher end of the concentration range. After logistic fitting of the dose-response inhibition data, the area under the curve (AUC) was determined as the exact solution. A 10% minimal activity threshold (t) was set. The maximum (Cmax) and minimum (Cmin) concentrations were used for screening of the inhibitors, with Cmax = x2 and x1 concentration with minimal activity t. […]

As for `CC(C)c1ccc2cc(C(F)(F)F)c(=O)c3c(N4CCCCC4)c(C=O)c(c1)c23` [Compound 1], the “multipolar phenotype (multiple mCherry-CaM-positive centrosomes)” value with HeLa cells was “significantly pronounced”. The “DSS3 potency relative to K-RasG12C inhibitor AMG-510 in 3D spheroid assays” value in data set [1] (relative to AMG-510) is recorded as about 50%. In addition, the “effect on 3D spheroid growth” value in data set [1] (spheroids grown 72 h then treated 72 h) is recorded as “visibly lower activity”. Besides, in data set [2], the “lower unspecific toxic effect on HRAS mutant cells as compared to OphA” value was > 40 fold and 40–260 fold.
